# Measurements taken from PMC546160 (Nucleic Acids Research, 2005).
# Assays:
# [1] = molecular target: HhaI methyltransferase (M.HhaI) (Haemophilus parahaemolyticus, UniProt P05102, W41I); assay: biochemical
# [2] = molecular target: T1, HhaI methyltransferase (M.HhaI) (Haemophilus parahaemolyticus, UniProt P05102); assay: biochemical
# T1 sequence (P05102 1-327): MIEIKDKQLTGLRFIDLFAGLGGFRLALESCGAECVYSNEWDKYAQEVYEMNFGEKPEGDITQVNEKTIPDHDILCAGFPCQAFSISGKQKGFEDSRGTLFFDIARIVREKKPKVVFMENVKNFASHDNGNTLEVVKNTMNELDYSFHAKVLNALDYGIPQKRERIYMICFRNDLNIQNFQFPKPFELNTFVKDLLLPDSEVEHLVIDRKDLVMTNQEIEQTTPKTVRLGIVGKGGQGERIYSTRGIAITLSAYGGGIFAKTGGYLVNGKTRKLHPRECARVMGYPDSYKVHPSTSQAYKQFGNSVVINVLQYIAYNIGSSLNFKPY
smiles,measurement,setting,value
C[S+](CC[C@H](N)C(=O)O)C[C@H]1O[C@@H](n2cnc3c(N)ncnc32)[C@H](O)[C@@H]1O (some centres unmarked) [AdoMet],Kd,[1],14 µM
same,Kd,[2],4.4 µM
